Assays:
morningglory [1] = assay: Test A postemergence; format: in vivo, Ipomoea spp.; details: Postemergence
Description: (§1) Seeds of plant species selected from barnyardgrass (Echinochloa crus-galli), kochia (Kochia scoparia), common ragweed (Ambrosia elation), Italian ryegrass (Lolium multiflorum), crabgrass, large (large crabgrass, Digitaria sanguinalis), foxtail, giant (giant foxtail, Setaria faberii), morningglory (Ipomoea spp.), pigweed (redroot pigweed, Amaranthus retroflexus), velvetleaf (Abutilon theophrasti), wheat (Triticum aestivum), and corn (Zea mays) were planted into a blend of loam soil and sand and treated preemergence with a directed soil spray using test chemicals formulated in a non-phytotoxic solvent mixture which included a surfactant.
(§2) At the same time, plants selected from these crop and weed species and also blackgrass (Alopecurus myosuroides), and galium (catchweed bedstraw, Galium aparine) were planted in pots containing the same blend of loam soil and sand and treated with postemergence applications of test chemicals formulated in the same manner. Plants ranged in height from 2 to 10 cm and were in the one- to two-leaf stage for the postemergence treatment. Treated plants and untreated controls were maintained in a greenhouse for approximately 10 days, after which time all treated plants were compared to untreated controls and visually evaluated for injury. Plant response ratings, summarized in Table A, are based on a 0 to 100 scale where 0 is no effect and 100 is complete control. A dash (-) response means no test result.

pigweed [2] = assay: Test A postemergence; format: in vivo, Amaranthus retroflexus; details: Postemergence
Description: as §1, §2

velvetleaf [3] = assay: Test A postemergence; format: in vivo, Abutilon theophrasti; details: Postemergence
Description: as §1, §2

wheat [4] = assay: Test A postemergence; format: in vivo, Triticum aestivum; details: Postemergence
Description: as §1, §2

barnyardgrass [5] = assay: Test A preemergence; format: in vivo, Echinochloa crus-galli; details: Preemergence, 1000 g ai/ha; 0 to 100 scale, 0 no effect, 100 complete control
Description: as §1, §2

crabgrass, large [6] = assay: Test A preemergence; format: in vivo, Digitaria sanguinalis; details: Preemergence, 1000 g ai/ha; 0 to 100 scale, 0 no effect, 100 complete control
Description: as §1, §2

foxtail, giant [7] = assay: Test A preemergence; format: in vivo, Setaria faberii; details: Preemergence, 1000 g ai/ha; 0 to 100 scale, 0 no effect, 100 complete control
Description: as §1, §2

morningglory [8] = assay: Test A preemergence; format: in vivo, Ipomoea spp.; details: Preemergence, 1000 g ai/ha; 0 to 100 scale, 0 no effect, 100 complete control
Description: as §1, §2

pigweed [9] = assay: Test A preemergence; format: in vivo, Amaranthus retroflexus; details: Preemergence, 1000 g ai/ha; 0 to 100 scale, 0 no effect, 100 complete control
Description: as §1, §2

velvetleaf [10] = assay: Test A preemergence; format: in vivo, Abutilon theophrasti; details: Preemergence, 1000 g ai/ha; 0 to 100 scale, 0 no effect, 100 complete control
Description: as §1, §2

wheat [11] = assay: Test A preemergence; format: in vivo, Triticum aestivum
Description: as §1, §2

corn [12] = assay: Test A preemergence; format: in vivo, Zea mays; details: Preemergence, 1000 g ai/ha; 0 to 100 scale, 0 no effect, 100 complete control
Description: as §1, §2

barnyardgrass [13] = assay: Test A postemergence; format: in vivo, Echinochloa crus-galli; details: Postemergence, 1000 g ai/ha; visual rating after approx. 10 days, 0 to 100 scale (0 no effect, 100 complete control)
Description: as §1, §2

crabgrass, large [14] = assay: Test A postemergence; format: in vivo, Digitaria sanguinalis; details: Postemergence, 1000 g ai/ha; visual rating after approx. 10 days, 0 to 100 scale (0 no effect, 100 complete control)
Description: as §1, §2

foxtail, giant [15] = assay: Test A postemergence; format: in vivo, Setaria faberii; details: Postemergence, 1000 g ai/ha; visual rating after approx. 10 days, 0 to 100 scale (0 no effect, 100 complete control)
Description: as §1, §2

corn [16] = assay: Test A postemergence; format: in vivo, Zea mays; details: Postemergence, 1000 g ai/ha; visual rating after approx. 10 days, 0 to 100 scale (0 no effect, 100 complete control)
Description: as §1, §2

[17] = 125 g ai/ha, 0 to 100 scale, 0 no effect, 100 complete control
[18] = Preemergence, 1000 g ai/ha, 0 to 100 scale, 0 no effect, 100 complete control
[19] = preemergence, 500 g ai/ha, visual injury after approx. 10 days, 0 to 100 scale (0 no effect, 100 complete control)
[20] = 1000 g ai/ha, visual rating after approx. 10 days, 0 to 100 scale (0 no effect, 100 complete control)

SMILES | Barnyardgrass plant response rating (barnyardgrass [5]) | Crabgrass, Large plant response rating (crabgrass, large [6]) | Foxtail, Giant plant response rating (foxtail, giant [7]) | Morningglory plant response rating (morningglory [8]) | Pigweed plant response rating (pigweed [9]) | Velvetleaf plant response rating (velvetleaf [10]) | Wheat plant response rating (wheat [11]; [18]) | Wheat plant response rating (wheat [11]; [19]) | Corn plant response rating (corn [12]) | Barnyardgrass plant response rating (barnyardgrass [13]) | Crabgrass, Large plant response rating (crabgrass, large [14]) | Foxtail, Giant plant response rating (foxtail, giant [15]) | Morningglory plant response rating (morningglory [1]; [20]) | Pigweed plant response rating (pigweed [2]; [20]) | Velvetleaf plant response rating (velvetleaf [3]; [20]) | Wheat plant response rating (wheat [4]; [20]) | Corn plant response rating (corn [16]) | also measured
O=C(NCC(F)(F)F)c1cc(CCCl)n(Cc2ccnc(C(F)(F)F)c2)n1 [Compound 193] | – | – | – | – | – | – | – | – | – | – | – | – | – | – | – | – | – | Morningglory plant response rating (morningglory [1]; [17]): 80; Pigweed plant response rating (pigweed [2]; [17]): 100; Velvetleaf plant response rating (velvetleaf [3]; [17]): 70; Wheat plant response rating (wheat [4]; [17]): 0
CCc1cc(C(=O)NC)nn1Cc1cccc(OC(F)(F)F)c1 [Compound 65] | 60 | 80 | 70 | 70 | 90 | 20 | 0 | 0 | 0 | 50 | 50 | 50 | 90 | 70 | 30 | 20 | 30 | –
CCNC(=O)c1cc(CC)n(Cc2cccc(C(F)(F)F)c2)n1 [Compound 17] | 80 | 100 | 100 | 80 | 100 | 100 | 20 | – | 10 | 40 | 90 | 90 | 100 | 90 | 100 | 30 | 40 | –
CCc1cc(C(=O)NCC(F)(F)F)nn1Cc1cccc(C(F)(F)F)c1 [Compound 18] | 80 | 100 | 100 | 70 | 90 | 100 | 40 | – | 30 | 50 | 90 | 90 | 100 | 90 | 100 | 40 | 70 | –
CCc1cc(C(=O)NCCOC)nn1Cc1cccc(OC(F)(F)F)c1 [Compound 57] | 10 | 20 | 90 | 10 | 10 | 0 | 0 | 0 | 0 | 10 | 10 | 10 | 60 | 50 | 30 | 0 | 40 | –

Source: patent US20150105252A1, “SUBSTITUTED PYRAZOLES AS HERBICIDES” (E I DU PONT DE NEMOURS AND COMPANY, priority 2013, published 2015)
